This is an account of results in patent US8524713B2, “Substituted spirocyclic piperidine derivatives as histamine-3 (H3) receptor ligands” (Cephalon, Inc, priority 2008, dated 2013).

The structures appear in SMILES notation. Structures can show the parent of a compound that is named as a salt.

The target of one data set is T1, human H3 receptor (Homo sapiens, UniProt Q9Y5N1).
T1 construct: expressed in transfected cells; membrane preparation
Put plainly: Human H3 radioligand binding ([3H]-N-alpha-methylhistamine, SPA). As to conditions: membranes of CHO cells expressing human H3 receptor; [3H]-N-alpha-methylhistamine about 1 nM. As for the experimental part: (§1) Methods: CHO cells stably expressing the human H3 receptor (GenBank: NM_007232) were harvested and cell pellets were frozen (−80° C.). Cell pellets were resuspended in 5 mM Tris-HCl, pH 7.5 with […] and a cocktail of protease inhibitors (Complete Protease Inhibitior Tablets, Roche Diagnostics). Cells were disrupted using a polytron cell homogenizer and the suspension was centrifuged at 1000×g for 10 minutes at 4° C. The pellet was discarded and the supernatant centrifuged at 40,000×g for 30 min at 4° C. This membrane pellet was washed in membrane buffer containing 50 mM Tris-HCl, pH 7.5 with 0.6 mM EDTA, 5 mM MgCl2 and protease inhibitors, recentrifuged as above and the final pellet resuspended in membrane buffer plus 250 mM sucrose and frozen at −80° C.
(§2) Radioligand Binding. Membranes were resuspended in 50 mM Tris HCl (pH 7.4), 5 mM MgCl2, 0.1% BSA. The membrane suspensions (10 μg protein per well) were incubated in a 96 well microtiter plate with [^3H]-N-alpha-methylhistamine (approximately 1 nM final concentration), test compounds at various concentrations (0.01 nM-30 μM) and scintillation proximity beads (Perkin Elmer, FlashBlueGPCR Scintillating Beads) in a final volume of 80 μl for 4 hours at room temperature, protected from light. Non-specific binding was determined in the presence of 10 μM clobenpropit. Radioligand bound to receptor, and therefore in proximity to the scintillation beads, was measured using a MicroBeta scintillation counter.

Data set [1] has as its target T2, rat histamine H3 receptor (Rattus norvegicus, UniProt Q9QYN8).
T2 construct: encoding the entire 445-amino-acid rat histamine H3 receptor; expressed in transfected cells; membrane preparation
Put plainly: Rat H3 radioligand binding ([3H]-N-alpha-methylhistamine, SPA). As to conditions: membranes of CHO-A3 cells expressing rat H3 receptor; [3H]-N-alpha-methylhistamine about 1 nM.
Source text: as §1, with “Cell line development and membrane preparation. The rat” for “Methods: CHO cells stably expressing the human”, “cDNA was PCR amplified from reverse-transcribed RNA pooled from rat thalamus, hypothalamus, striatum and prefrontal cortex with a sequence corresponding to by #338-1672 of Genbank file #NM_053506, encoding the entire 445-amino-acid rat histamine H3 receptor. This was engineered into the pIRES-neo3 mammalian expression vector, which was stably transfected into the CHO-A3 cell line (Euroscreen, Belgium), followed by clonal selection by limiting dilution. Cells” for “(GenBank: NM_007232)”
as §2

T2 sequence (Q9QYN8 whole entry): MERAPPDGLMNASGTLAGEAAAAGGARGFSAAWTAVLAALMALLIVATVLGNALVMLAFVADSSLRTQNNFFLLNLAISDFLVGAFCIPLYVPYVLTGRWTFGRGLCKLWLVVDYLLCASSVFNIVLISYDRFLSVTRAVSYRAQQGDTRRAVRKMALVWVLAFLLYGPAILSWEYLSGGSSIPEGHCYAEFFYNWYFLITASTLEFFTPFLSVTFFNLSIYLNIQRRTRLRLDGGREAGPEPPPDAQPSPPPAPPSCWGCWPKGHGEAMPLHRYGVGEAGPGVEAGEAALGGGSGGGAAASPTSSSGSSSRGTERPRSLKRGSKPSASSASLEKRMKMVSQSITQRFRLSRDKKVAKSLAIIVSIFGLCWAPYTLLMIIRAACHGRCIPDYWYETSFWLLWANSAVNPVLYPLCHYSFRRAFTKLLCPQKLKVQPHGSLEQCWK
T1 sequence (Q9Y5N1 whole entry): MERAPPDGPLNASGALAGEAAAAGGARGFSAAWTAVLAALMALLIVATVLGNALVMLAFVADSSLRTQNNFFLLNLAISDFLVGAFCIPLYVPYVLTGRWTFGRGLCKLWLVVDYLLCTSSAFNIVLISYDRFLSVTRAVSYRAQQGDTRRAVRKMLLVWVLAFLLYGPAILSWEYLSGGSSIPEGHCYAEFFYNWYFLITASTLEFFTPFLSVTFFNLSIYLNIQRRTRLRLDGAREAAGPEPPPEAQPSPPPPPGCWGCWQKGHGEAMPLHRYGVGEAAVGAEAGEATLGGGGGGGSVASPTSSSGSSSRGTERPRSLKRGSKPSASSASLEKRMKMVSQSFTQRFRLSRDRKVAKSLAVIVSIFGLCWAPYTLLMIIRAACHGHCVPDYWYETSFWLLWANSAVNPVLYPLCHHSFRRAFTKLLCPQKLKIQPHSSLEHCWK

The Ki is a measure of affinity in units of concentration, obtained from inhibition or displacement. Low values mean higher affinity, high ones lower affinity. What is called melting point is the temperature, or range, at which the solid turns liquid. With `O=C1CCC(c2ccc3c(c2)CCC2(CCN(C4CCC4)CC2)O3)=NN1` [Example 5], the melting point is 242 to 243.5 °C. Further, the Ki at human H3 receptor is < 200 nM. For the same molecule, the Ki in data set [1] is < 200 nM.
In the case of `O=C1NN=C(c2ccc3c(c2)COC2(CCN(C4CCC4)CC2)O3)C2CC12` (stereo not drawn) (as salt: HCl) [Example 37], the melting point was > 300 °C.
As for `O=c1cc(-c2ccc3c(c2)COC2(CCN(C4CCC4)CC2)O3)cn[nH]1` (as salt: HCl) [Example 26], the melting point is 258 to 262 °C.
With `Cc1c(-c2ccc(=O)[nH]n2)ccc2c1COC1(CCN(C3CCC3)CC1)O2` [Example 31], the Ki (at human H3 receptor; in data set [1]) was < 200 nM throughout.
The molecule `O=C1CCC(c2ccc3c(c2)COC2(CCN(C4CCC4)CC2)O3)=NN1` [Example 36] returned a melting point of 192 to 194 °C. Besides, on human H3 receptor, the Ki is < 200 nM. Also, the Ki in data set [1] was < 200 nM.
Take `Cc1c(-c2ccc3c(c2)COC2(CCN(C4CCC4)CC2)O3)n[nH]c(=O)c1C` [Example 41]: the Ki (on human H3 receptor; in data set [1]) was < 200 nM throughout.
As to `O=c1cc(-c2ccccc2)c(-c2ccc3c(c2)COC2(CCN(C4CCC4)CC2)O3)n[nH]1` [Example 33], the melting point lay in the range of 260 to 262 °C. Further, the Ki at human H3 receptor is < 200 nM. Moreover, the Ki in data set [1] is < 200 nM.
`Cc1cc(=O)[nH]nc1-c1ccc2c(c1)CCC1(CCN(C3CCC3)CC1)O2` [Example 13, 1′-Cyclobutyl-6-(5-methyl-2H-pyridazin-3-one-6-yl)-spiro[3,4-dihydrobenzopyran-2,4′-piperidine]] showed a melting point of 270 to 272 °C. In addition, the Ki at human H3 receptor is < 200 nM. Also, the Ki in data set [1] was < 200 nM.
For `O=C1NN=C(c2ccc3c(c2)CCC2(CCN(C4CCC4)CC2)O3)C2CCC12` (single isomer, unassigned) [Example 23], the Ki (on human H3 receptor; in data set [1]) was < 200 nM each time.
For the molecule `O=c1cc(-c2ccc3c(c2)COC2(CCN(C4CCC4)CC2)O3)cn[nH]1` [Example 26], the Ki (at human H3 receptor; in data set [1]) was < 200 nM each time.
Regarding `O=C1NN=C(c2ccc3c(c2)CC2(CCN(C4CCC4)CC2)O3)C2CC12` (stereo not drawn) [Example 2, l′-cyclobutyl-5-(3,4-diaza-bicyclo[4.1.0]hepten-2-one-5-yl)-spiro[benzofuran-2(3H),4′-piperidine]], the melting point lay within 189 to 191 °C. Besides, on human H3 receptor, the Ki is < 200 nM. In data set [1], the Ki is < 200 nM.
With `Cc1cc2c(cc1-c1ccc(=O)n(C)n1)COC1(CCN(C3CCC3)CC1)O2` [Example 30], the Ki (at human H3 receptor; in data set [1]) was < 200 nM in each case.
Molecule `O=c1cccnn1CCCOc1ccc2c(c1)CCC1(CCN(C3CCC3)CC1)O2` (as salt: HCl) [Example 24, 1′-Cyclobutyl-6-(3-(2-pyridazin-3-one)propyloxy]-spiro[3,4-dihydrobenzopyran-2,4′-piperidine]] had a melting point of 207 to 209 °C.
For the molecule `O=C1NN=C(c2ccc3c(c2)CCC2(CCN(C4CCC4)CC2)O3)C2CC12` (stereo not drawn) [Example 7, 1′-Cyclobutyl-6-(3,4-diaza-bicyclo[4.1.0]hept-4-en-2-one-5-yl)-spiro[3,4-dihydrobenzopyran-2,4′-piperidine]], the Ki (at human H3 receptor; in data set [1]) was < 200 nM in each case.
In the case of `O=C1NN=C(c2ccc3c(c2)COC2(CCN(C4CCC4)CC2)O3)C2CC12` (stereo not drawn) [Example 37], the Ki (on human H3 receptor; in data set [1]) was < 200 nM throughout.
Take `O=C1NN=C(c2ccc3c(c2)COC2(CCN(C4CCC4)CC2)O3)C2CCC12` (stereo not drawn) [Example 38]: the Ki (at human H3 receptor; in data set [1]) was < 200 nM in each case.
`Cc1c(-c2ccc3c(c2)COC2(CCN(C4CCC4)CC2)O3)n[nH]c(=O)c1C` (as salt: HCl) [Example 41]: the melting point was > 300 °C.
Turning to `O=C1NN=C(c2ccc3c(c2)CCC2(CCNCC2)O3)C2CC12` (stereo not drawn) [Example 6, 6-(3,4-diaza-bicyclo[4.1.0]hept-4-en-2-one-5-yl)-spiro[3,4-dihydrobenzopyran-2,4′-piperidine]], the Ki (at human H3 receptor; in data set [1]) was > 1000 nM throughout.
As to `CC1CC(=O)NN=C1c1ccc2c(c1)COC1(CCN(C3CCC3)CC1)O2` (stereo not drawn) [Example 39], the Ki (on human H3 receptor; in data set [1]) was < 200 nM throughout.
As for `O=C1NN=C(c2ccc3c(c2)CCC2(CCN(C4CCC4)CC2)O3)C2CCC12` (single isomer, unassigned) [Example 22], the Ki (at human H3 receptor; in data set [1]) was < 200 nM throughout.
In the case of `Cc1cc2c(cc1-c1ccc(=O)n(C)n1)COC1(CCN(C3CCC3)CC1)O2` (as salt: HCl) [Example 30], the melting point lay within 269 to 270 °C.
With `CC1(C)CC(c2ccc3c(c2)CCC2(CCN(C4CCC4)CC2)O3)=NNC1=O` [Example 11, 1′-Cyclobutyl-6-(4,4-dimethyl-4,5-dihydro-2H-pyridazin-3-one-6-yl)-spiro[3,4-dihydrobenzopyran-2,4′-piperidine]], the Ki (on human H3 receptor; in data set [1]) was < 200 nM each time.
Consider `CC1(C)CC(c2ccc3c(c2)COC2(CCN(C4CCC4)CC2)O3)=NNC1=O` [Example 34, 1′-Cyclobutyl-6-[5H-4,4-dimethylpyridazin-3-one)-spiro[1,3-benzodioxine-2,4′-piperidine]], for which the Ki (on human H3 receptor; in data set [1]) was < 200 nM in each case.
`CC(C)N1CCC2(CCc3cc(C4=NNC(=O)C5CC45)ccc3O2)CC1` (stereo not drawn) [Example 9]: the Ki (on human H3 receptor; in data set [1]) was < 200 nM each time.
For the molecule `Cc1cc(=O)[nH]nc1-c1ccc2c(c1)COC1(CCN(C3CCC3)CC1)O2` [Example 40], the Ki (at human H3 receptor; in data set [1]) was < 200 nM throughout.
The molecule `Cc1cc(=O)[nH]nc1-c1ccc2c(c1)COC1(CCN(C3CCC3)CC1)O2` (as salt: HCl) [Example 40] had a melting point of 265 to 267 °C.
Take `O=c1cccnn1CC(O)COc1ccc2c(c1)CCC1(CCN(C3CCC3)CC1)O2` (stereo not drawn) [Example 25, 1′-Cyclobutyl-6-(3-(2-pyridazin-3-one)-2-hydroxypropyloxy]-spiro[3,4-dihydrobenzopyran-2,4′-piperidine]]: the Ki (at human H3 receptor; in data set [1]) was < 200 nM throughout.
In turn, `CC1CC(=O)NN=C1c1ccc2c(c1)COC1(CCN(C3CCC3)CC1)O2` (stereo not drawn) (as salt: HCl) [Example 39] displayed a melting point of 209 to 214 °C.
On to `O=C1NN=C(c2ccc3c(c2)CCC2(CCN(C4CCCC4)CC2)O3)C2CC12` (stereo not drawn) [Example 8, 1′-Cyclopentyl-6-(3,4-diaza-bicyclo[4.1.0]hept-4-en-2-one-5-yl)-spiro[3,4-dihydrobenzopyran-2,4′-piperidine]], for which the Ki (on human H3 receptor; in data set [1]) was < 200 nM throughout.
Turning to `O=c1cccnn1CCCOc1ccc2c(c1)CCC1(CCN(C3CCC3)CC1)O2` [Example 24, 1′-Cyclobutyl-6-(3-(2-pyridazin-3-one)propyloxy]-spiro[3,4-dihydrobenzopyran-2,4′-piperidine]], the Ki (at human H3 receptor; in data set [1]) was < 200 nM each time.
The molecule `Cc1c(-c2ccc(=O)[nH]n2)ccc2c1COC1(CCN(C3CCC3)CC1)O2` (as salt: HCl) [Example 31] showed a melting point of 255 to 257 °C.
In turn, `O=c1cccnn1CC(O)COc1ccc2c(c1)CCC1(CCN(C3CCC3)CC1)O2` (stereo not drawn) (as salt: HCl) [Example 25, 1′-Cyclobutyl-6-(3-(2-pyridazin-3-one)-2-hydroxypropyloxy]-spiro[3,4-dihydrobenzopyran-2,4′-piperidine]] showed a melting point of 201 to 203 °C.
As for `O=C1NN=C(c2ccc3c(c2)CCC2(CCN(C4CCC4)CC2)O3)C2CCC12` (racemic) [Example 10, 1′-Cyclobutyl-6-(3,4-diaza-bicyclo[4.2.0]oct-4-en-2-one-5-yl)-spiro[3,4-dihydrobenzopyran-2,4′-piperidine]], the Ki (on human H3 receptor; in data set [1]) was < 200 nM throughout.
On to `O=C1NN=C(c2ccc3c(c2)COC2(CCN(C4CCC4)CC2)O3)C2CCC12` (stereo not drawn) (as salt: HCl) [Example 38], for which the melting point lay in the range of 271 to 274 °C.
